Experiment [1] relates to Cavia porcellus. The experiment is described as follows: Compound was tested ex vivo for it''s inhibition of U-46619 induced platelet aggregation in the guinea pig after 2 hr of administration at dose 10 mg/kg. It is filed as functional.
Experiment [2] deals with Cavia porcellus. The experiment is described as follows: Compound was tested ex vivo for it''s inhibition of U-46619 induced platelet aggregation in the guinea pig after 4 hr of administration at dose 10 mg/kg. It is filed as functional.
In experiment [3] the target is T1, Thromboxane A2 receptor (Homo sapiens) (UniProt P21731).
T1 sequence (whole entry): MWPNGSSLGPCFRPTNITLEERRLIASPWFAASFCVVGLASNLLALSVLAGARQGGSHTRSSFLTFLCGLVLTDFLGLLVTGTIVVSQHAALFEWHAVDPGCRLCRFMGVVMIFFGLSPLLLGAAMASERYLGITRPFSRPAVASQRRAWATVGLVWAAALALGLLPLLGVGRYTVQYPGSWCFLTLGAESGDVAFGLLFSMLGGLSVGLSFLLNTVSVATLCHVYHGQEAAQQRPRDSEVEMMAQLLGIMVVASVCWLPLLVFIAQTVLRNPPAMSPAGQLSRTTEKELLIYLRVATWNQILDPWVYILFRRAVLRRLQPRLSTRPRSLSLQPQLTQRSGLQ
The experiment is described as follows: Binding affinity for thromboxane A2 receptor by measuring ability to displace [3H]U-46619 from guinea pig platelets at 1 uM. To be noted: Cavia porcellus, target entry is the homologue from another species.

Experiment [4] addresses T1, Thromboxane A2 receptor (Homo sapiens). Put plainly: Binding affinity for thromboxane A2 receptor by measuring its ability to displace [3H]U-46619 from guinea pig platelets at 0.1 uM. To be noted: Cavia porcellus, target entry is the homologue from another species.
For experiment [5], the system named is Cavia porcellus. Put plainly: Inhibitory effect of the compounds on U-46619-induced platelet aggregation ex vivo in guinea pig at the dose of 10 mg/kg 4 hr after oral administration. It is filed as functional.
Experiment [6] deals with T1, Thromboxane A2 receptor (Homo sapiens). The experiment is described as follows: Inhibitory effect against binding thromboxane A2 receptor on guinea pig platelets using [3H]U-46619 as radioligand at 1 uM concentration. The settings on record: Cavia porcellus, target entry is the homologue from another species.
For experiment [7], the system named is Cavia porcellus. Put plainly: Inhibitory effect of the compounds on U-46619-induced platelet aggregation ex vivo in guinea pig at the dose of 10 mg/kg 2 hr after oral administration. It is filed as functional.
The subject of experiment [8] is Cavia porcellus. The experiment is described as follows: Inhibitory effect of the compounds on U-46619-induced platelet aggregation ex vivo in guinea pig at the dose of 10 mg/kg 7 hr oral after administration. It is filed as functional.
Experiment [9] relates to Cavia porcellus. The experiment is described as follows: Compound was tested ex vivo for it's inhibition of U-46619 induced platelet aggregation in the guinea pig after 2 hr of administration at dose 10 mg/kg. It is filed as functional.
The test system of experiment [10] is Cavia porcellus. The experiment is described as follows: Compound was tested ex vivo for it's inhibition of U-46619 induced platelet aggregation in the guinea pig after 4 hr of administration at dose 10 mg/kg. It is filed as functional.
The test system of experiment [11] is Cavia porcellus. The experiment is described as follows: Compound was tested ex vivo for it''s inhibition of U-46619 induced platelet aggregation in the guinea pig after 7 hr of administration at dose 10 mg/kg. It is filed as functional.
For experiment [12], the target named is T1, Thromboxane A2 receptor (Homo sapiens). Put plainly: Compound was tested for its binding affinity at Thromboxane A2 receptor by measuring its ability to displace [3H]-U-46,619 from guinea pig platelets at 1 uM. The settings on record: Cavia porcellus, target entry is the homologue from another species.
The target is the same in experiment [13]. Put plainly: Compound was tested for its binding affinity at Thromboxane A2 receptor by measuring its ability to displace [3H]U-46619 from guinea pig platelets. To be noted: Cavia porcellus; target entry is the homologue from another species; concentration not given here.
Experiment [14] relates to Cavia porcellus. Put plainly: Compound was tested ex vivo for it's inhibition of U-46619 induced platelet aggregation in the guinea pig after 4 hr of administration at dose 100 mg/kg. It is filed as functional.
Experiment [15] has as its system Cavia porcellus. Put plainly: Inhibitory effect of the compounds on U-46619-induced platelet aggregation ex vivo in guinea pig at the dose of 30 mg/kg 2 hr after oral administration. It is filed as functional.
Experiment [16] relates to Cavia porcellus. Put plainly: Compound was tested ex vivo for it's inhibition of U-46619 induced platelet aggregation in the guinea pig after 4 hr of administration at dose 30 mg/kg. It is filed as functional.
Experiment [17] concerns Cavia porcellus. The experiment is described as follows: Compound was tested ex vivo for it's inhibition of U-46619 induced platelet aggregation in the guinea pig after 2 hr of administration at dose 100 mg/kg. It is filed as functional.
The test system of experiment [18] is Cavia porcellus. The experiment is described as follows: Compound was tested ex vivo for it's inhibition of U-46619 induced platelet aggregation in the guinea pig after 2 hr of administration at dose 30 mg/kg. It is filed as functional.
In experiment [19] the test system is Cavia porcellus. Put plainly: Inhibitory effect of the compounds on U-46619-induced platelet aggregation ex vivo in guinea pig at the dose of 100 mg/kg 4 hr after oral administration. It is filed as functional.
The test system of experiment [20] is Cavia porcellus. Put plainly: Inhibitory effect of the compounds on U-46619-induced platelet aggregation ex vivo in guinea pig at the dose of 100 mg/kg 2 hr after oral administration. It is filed as functional.
In experiment [21] the test system is Cavia porcellus. Put plainly: Compound was tested ex vivo for it''s inhibition of U-46619 induced platelet aggregation in the guinea pig ex vivo after 7 hr of administration at dose 10 mg/kg. It is filed as functional.
In experiment [22] the target is T2, Thromboxane-A synthase (Homo sapiens) (UniProt P24557).
T2 sequence (whole entry): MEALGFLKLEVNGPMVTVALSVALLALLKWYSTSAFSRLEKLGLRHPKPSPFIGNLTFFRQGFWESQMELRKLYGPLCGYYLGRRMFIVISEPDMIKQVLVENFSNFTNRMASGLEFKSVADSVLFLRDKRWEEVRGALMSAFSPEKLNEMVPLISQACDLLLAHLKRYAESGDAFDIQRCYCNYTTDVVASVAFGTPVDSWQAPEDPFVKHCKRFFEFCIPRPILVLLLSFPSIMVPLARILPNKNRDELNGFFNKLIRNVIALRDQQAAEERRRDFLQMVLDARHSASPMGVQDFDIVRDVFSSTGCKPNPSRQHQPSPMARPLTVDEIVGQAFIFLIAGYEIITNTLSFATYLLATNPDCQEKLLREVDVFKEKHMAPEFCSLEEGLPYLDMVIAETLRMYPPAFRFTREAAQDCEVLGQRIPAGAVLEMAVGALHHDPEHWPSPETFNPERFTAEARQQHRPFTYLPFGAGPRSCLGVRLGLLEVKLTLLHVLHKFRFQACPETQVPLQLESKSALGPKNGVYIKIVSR
The experiment is described as follows: Inhibitory activity against thromboxane A2 synthase obtained from bovine platelet microsomes at 10 uM. The settings on record: Bos taurus, target entry is the homologue from another species.

Experiment [23] concerns Thromboxane-A synthase (Bos taurus). The experiment is described as follows: Inhibitory effect against thromboxane A2 synthase from bovine platelets at 10 uM concentration.
Experiment [24] deals with T1, Thromboxane A2 receptor (Homo sapiens). The experiment is described as follows: Compound was tested for its binding affinity at TXA2 receptor by measuring its ability to displace [3H]U-46619 from guinea pig platelets at 1 uM. The settings on record: Cavia porcellus, target entry is the homologue from another species.

SMILES strings stand for the structures. “And” between values parts separate entries of the source, which are not always exact repeats. Equal entries are not always repeated.

With `O=C(O)c1ccc2c(c1)C(SCCNS(=O)(=O)c1ccccc1)c1ccccc1CS2` (configuration not stated), the Aggregation in the experiment with Cavia porcellus [1] and in the experiment on Cavia porcellus [2] was 0% in each case. For the same molecule, the inhibition (usually the change of the read-out against control, counted positive when it falls) was 99% in experiment [3], 94% in experiment [4] and 99% in experiment [6]. Besides, the Platelet aggregation in the experiment with Cavia porcellus [5] and in the experiment on Cavia porcellus [7] was 0% throughout.

As to `O=C(O)c1ccc2c(c1)C(SCCNS(=O)(=O)c1ccccc1)c1ccccc1CO2` (configuration not stated), the Platelet aggregation in the experiment on Cavia porcellus [8] amounted to 12.3%; in the experiment on Cavia porcellus [5], 4.5%; with Cavia porcellus [7], 11.8%. In addition, the results for the Aggregation in the experiment with Cavia porcellus [9], in the experiment on Cavia porcellus [10] and in the experiment with Cavia porcellus [11] were 11.8%, 4.5% and 12.3%, respectively. For the same molecule, the inhibition is 92% in [3]; 72% in experiment [4]; 92% and 84% in experiment [6].

In the case of `O=C(O)c1ccc2c(c1)C(SCCNS(=O)(=O)/C=C/c1ccccc1)c1ccccc1CO2` (racemic) [listing 1 of 2 here], the results for the inhibition in [12], in experiment [13] and in [6] were 97%, 92% and 97%, respectively.

As for `O=C(O)COc1ccc(CCNS(=O)(=O)c2ccccc2)cc1` [SULOTROBAN], the Aggregation was 57% in the experiment on Cavia porcellus [14], 87% with Cavia porcellus [16], 12.7% in the experiment with Cavia porcellus [17] and 28% with Cavia porcellus [18]. Further, the Platelet aggregation came out at 28% in the experiment with Cavia porcellus [15], 87% with Cavia porcellus [5], 57% in the experiment with Cavia porcellus [19] and 12.7% in the experiment on Cavia porcellus [20]. The inhibition in [12] is 31%; in experiment [13] it was -5%; in [6] it was 31%.

As for `O=C(O)c1ccc2c(c1)C(SCCNS(=O)(=O)/C=C/c1ccccc1)c1ccccc1CO2` (single isomer, unassigned; (+)), the Platelet aggregation in the experiment on Cavia porcellus [8] was found to be 10.7%; with Cavia porcellus [5], 2.3%; in the experiment on Cavia porcellus [7], 0%.

Consider `O=C(O)c1ccc2c(c1)C(SCCNS(=O)(=O)c1cccs1)c1ccccc1CO2` (configuration not stated), for which the Platelet aggregation is 12.3% in the experiment on Cavia porcellus [8], 2.1% in the experiment with Cavia porcellus [5] and 14.3% in the experiment with Cavia porcellus [7]. The figures for the Aggregation in the experiment on Cavia porcellus [21], with Cavia porcellus [9] and with Cavia porcellus [10] were 12.3%, 14.3% and 2.1%, respectively. Besides, the inhibition in experiment [3] amounted to 99%; in [22], 33%; in experiment [4], 84%; in experiment [23], 33%; in experiment [6], 99%.

In turn, `O=C(O)c1ccc2c(c1)C(SCCNS(=O)(=O)c1ccccc1)c1cc(Br)ccc1CO2` (configuration not stated) displayed an Aggregation in the experiment on Cavia porcellus [9] of 41%. In addition, the inhibition in experiment [3] is 94%; in experiment [22], 6%; in experiment [4] it was 75%; in [23], 6%; in experiment [6], 94%. Moreover, the Platelet aggregation with Cavia porcellus [7] is 41%.

Turning to `O=C(O)c1ccc2c(c1)C(SCCNS(=O)(=O)/C=C/c1ccccc1)c1ccccc1CO2` (racemic) [listing 2 of 2 here], the Aggregation in the experiment on Cavia porcellus [21] amounted to 10.7%; with Cavia porcellus [9], 0%; with Cavia porcellus [10], 2.3%.

In experiment [24], `O=C(O)c1ccc2c(c1)C(SCCNS(=O)(=O)c1ccc3ccccc3c1)c1ccccc1CO2` (configuration not stated) registered a pInhibition of 95%. For the same molecule, the inhibition in experiment [22] stood at 38%; in experiment [4], 77%; in experiment [23] it was 38%; in [6], 95%.

Take `O=C(O)c1ccc2c(c1)C(SCCNC(=O)c1ccccc1)c1ccccc1CO2` (configuration not stated): the Aggregation in the experiment with Cavia porcellus [1] was 68.3%. For the same molecule, the inhibition in experiment [3] is 92%; in experiment [22], 63%; in experiment [4], 69%; in experiment [23], 63%; in [6] it was 92%. Moreover, the Platelet aggregation in the experiment with Cavia porcellus [7] was 68.3%.

For the molecule `O=C(NCCSC1c2ccccc2COc2ccc(C(=O)O)cc21)OCc1ccccc1` (configuration not stated), the Aggregation in the experiment on Cavia porcellus [1] is listed as 8.7%; in the experiment on Cavia porcellus [2], 57.3%. Moreover, the inhibition in experiment [3] came to 96%; in experiment [22], 56%; in experiment [4], 79%; in experiment [23] it was 56%; in [6], 96%. Also, the values for the Platelet aggregation in the experiment with Cavia porcellus [5] and in the experiment on Cavia porcellus [7] were 57.3% and 8.7%, respectively.

`O=C(O)c1ccc2c(c1)C(SCC/N=C(\S)NCc1ccccc1)c1ccccc1CO2` (configuration not stated) displayed an Aggregation with Cavia porcellus [2] of 61.7%. For the same molecule, the inhibition amounted to 96% in [3]; 92% in [22]; 80% in experiment [4]; 92% in experiment [23]; 96% in experiment [6]. The molecule further had a Platelet aggregation with Cavia porcellus [7] of 61.7%.

The values are drawn from ChEMBL document CHEMBL1126121, “Non-prostanoid thromboxane A2 receptor antagonists with a dibenzoxepin ring system. 1” (J Med Chem, 1992).
